From patent US12655436B2, “Import of unnatural or modified nucleoside triphosphates into cells via nucleic acid triphosphate transporters” (The Scripps Research Institute, priority 2014, dated 2026)

Columns and labels:
Polymerase = conditions: 10, 5, 2 or 1 μM, 30° C., 20 nM DNA
Method: Polymerase (15 μg/ml) is incubated at 30° C. in buffer (50 mM TRIS pH 7.5, 0.05% Tween 20, 6 mM MgSO4, 1 mM EDTA, 50 mM NaCl) with 20 nM DNA. […] Tubes are incubated at 30° C. and aliquots are taken at 0.33, 0.66, 1, 2, 5, and 15 mins from the 4 reaction tubes for quenching and 15% urea acrylamide gel analysis. 1 mM dNTPs are added to the remaining reaction tubes and after a further 10 mins an aliquot is taken for gel analysis (chase).

PtNTT2 [1] = test: [α-32P]-dATP uptake into E. coli C41(DE3) expressing NTT, TLC/phosphorimaging; format: cell-based, Phaeodactylum tricornutum; conditions: for dATP transport into cells by NTT: PtNTT2
Method: (§1) E. coli C41(DE3) freshly transformed with pCDF-1b-PtNTT2 was grown in 2×YT with streptomycin overnight, then diluted (1:100) into fresh 2×YT medium (1 ml of culture per uptake with [α-^32P]-dATP; 2 ml of culture per uptake with d5SICSTP or dNaMTP) supplemented with 50 mM potassium phosphate (KPi) and streptomycin. […] Cells were grown to an OD600 of ˜0.6 and expression was induced by the addition of IPTG (1 mM). The culture was allowed to grow for another hour (final OD600 ˜1.2) and then assayed directly for uptake as described below using a method adapted from Haferkamp, et al.
(§2) To analyze the intracellular dephosphorylation of dATP, after induction of an NTT, an uptake reaction was initiated by the addition of dATP (spiked with [α-^32P]-dATP) to a final concentration of 0.25 mM, followed by incubation at 37° C. with shaking for 30 min. A culture was then centrifuged (8,000 rfu for 5 min, RT). Supernatant was analyzed by thin layer chromatography (TLC), while cell pellets were washed 3 times with ice cold KPi (50 mM, 100 μL) to remove excess radioactive substrate, lysed with NaOH (0.2 M, 100 μl) and centrifuged (10,000 rfu for 5 min RT) to pellet the cell debris, before the supernatant (1.5 μl) was analyzed by TLC.
Samples (1 μl) were applied on a 0.5 mm polyethyleneimine cellulose TLC plate and eluted first by sodium formate (0.5 M, pH 3.0) for 30 sec, then by sodium formate (2.5 M, pH 3.0) for 2.5 m, and finally by sodium formate (4.0 M, pH 3.0) for 40 m. Plates were dried using a heat gun and quantified by phosphorimaging and imaging software.
The experiments described herein illustrate the plasmid-based expression of eight different NTTs in E. coli C41(DE3) (Table 9A). The uptake of [α-^32P]-dATP was examined as a surrogate for the unnatural triphosphates (FIG. 5).

TpNTT2 = test: as above; format: cell-based, Thalassiosira pseudonana
Method: as §1
as §2, with “TLC. […]” for “TLC.”

PamNTT2 = test: as above; format: cell-based, Protochlamydia amoebophila
Method: as §1
as §2, with “TLC. […]” for “TLC.”

PamNTT5 = test: as above; format: cell-based, Protochlamydia amoebophila
Method: as §1
as §2, with “TLC. […]” for “TLC.”

actively growing E. coli = conditions: for degradation of triphosphate in the presence of actively growing E. coli: preliminary characterization, HPLC and MALDI
Method: dNaMTP or d5SICSTP (10 mM each) were added to media to a final concentration of 0.25 mM. Cells were incubated with the substrate with shaking at 37° C. for 30 min and then pelleted (8,000 rfu for 5 min, 4° C.). An aliquot of the media fraction (40 μl) was mixed with acetonitrile (80 μl) to precipitate proteins, and then incubated at RT for 30 min. Samples were either analyzed immediately by HPLC or stored at −80° C. until analysis. Analysis began with centrifugation (12,000 rfu for 10 min, RT), then the pellet was discarded, and the supernatant was reduced to ˜20 μl, resuspended in 95% 0.1 M TEAB, pH 7.5; 5% acetonitrile, to a final volume of 50 μl, and analyzed by HPLC.
Samples were applied to a LC column (3 μm C18 300 Å, 250×4.6 mm) and subjected to a linear gradient of 0-40% with 20% 0.1 M TEAB, pH 7.5; 80% acetonitrile over 40 min at a flow rate of 1 ml/min.
Injection series included two extra control samples containing 5 nmol of dNaMTP or d5SICSTP. […] After peak integration, the ratio of the unknown peak to the control peak adjusted for the loss from the extraction step (62% and 70% loss for dNaM and d5SICS, respectively), provided a measure of the amount of each of the moieties in a sample. To determine the relative concentrations of unnatural nucleotide inside a cell, the amount of imported unnatural nucleotide was then divided by the volume of cells, which was calculated from the volume of a single E. coli cell of (1 μm^3) multiplied by the number of cells in each culture (OD600 of 1.0 equal to 1×10^9 cells per ml). An RpNTT2 sample was used as a negative control and its signal was subtracted to account for any incomplete washing of nucleotide species from the media.

[2] = Nucleotide extraction from cells for HPLC analysis: recovery and triphosphate decomposition; set-up: species or system E. coli; conditions: ratio of 3P composition before and after extraction
Method: To minimize the effect of the lysis and triphosphate extraction protocols on the decomposition of nucleoside triphosphate within the cell, the following extraction procedure was discovered that led to an unexpectedly highest recovery with and low extent of decomposition (Table 9). Cells were grown, washed, and then 5 nmol of either dNaMTP or d5SICSTP was added to the pellets, which were then subjected to various types of extractions including boiling water, hot ethanol, cold methanol, freeze and thaw, lysozyme, glass beads, NaOH, trichloroacetic acid (TCA) with Freon, and perchloric acid (PCA) with KOH. The recovery and composition of the control was quantified by HPLC. […] Pellets were resuspended in ice cold KPi (50 mM, 250 μl) before addition of NaOH to decrease dephosphorylation after cell lysis (Method 4).

PtNTT2 [3] = test: Uptake of d5SICSTP or dNaMTP into E. coli C41(DE3) expressing PtNTT2, media and cytoplasmic fractions by HPLC; format: cell-based, Escherichia coli C41(DE3) expressing PtNTT2
Method: as §1
To analyze the intracellular dephosphorylation of unnatural nucleoside triphosphates, cell pellets were subjected to 3×100 μl washes of ice cold KPi (50 mM). Pellets were then resuspended in 250 μl of ice cold KPi (50 mM) and lysed with 250 μl of Lysis buffer L7 of the PureLink Quick Plasmid DNA Miniprep Kit (200 mM NaOH, 1% w/v SDS), after which the resulting solution was incubated at RT for 5 min. Precipitation buffer N4 (350 μl, 3.1 M potassium acetate, pH 5.5) was added, and the sample was mixed to homogeneity.

E. coli C41(DE3) = test: pINF replication in E. coli C41(DE3)-pACS: growth (OD600) and relative plasmid copy number; conditions: 0.25 mM triphosphates; absence of pINF
Method: A single clone of freshly transformed E. coli C41(DE3)-pACS was grown overnight in 2×YT medium (3 ml) supplemented with streptomycin (50 μg/ml) and KPi (50 mM). After 100-fold dilution into the same medium (300 ml) and outgrowth at 37° C. to an OD600 of 0.20, IPTG was added to a final concentration of 1 mM to induce the expression of PtNTT2. After 40 min, the cultures were rapidly cooled to 0° C., washed with sterile water (3×150 ml), and resuspended in 10% glycerol (1.5 ml).
An aliquot of electrocompetent C41(DE3)-pACS cells (50 μL) was mixed with pINF (2 μL, 400 ng), and electroporated in a 0.2 cm gap cuvette. […]
The cells were resuspended in fresh 2×YT medium (1.5 ml, 50 μg/ml streptomycin, 100 μg/ml ampicillin, 1 mM IPTG, 50 mM KPi, 0.25 mM dNaMTP, 0.25 mM d5SICSTP) and grown at 37° C. with shaking (250 rpm). At defined time points, OD600 was determined and aliquots (100 μl) were removed and centrifuged (8000 rfu for 5 min, 4° C.). Spent media was analyzed for nucleotide composition by HPLC and pINF was recovered by spin column purification (Zymo Research Corp.). […]
After recovery, the cells were centrifuged (4000 rfu for 5 min, 4° C.), spent media (0.15 ml) was removed and analyzed for nucleotide composition by HPLC. […]

Cc1ccc2c(=S)n([C@H]3C[C@H](O)[C@@H](CO)O3)ccc2c1 [(d)5SICS]
addition to DNA primer by polymerase (gel band shift) (Polymerase): extension by one base

Nc1ncnc2c1ncn2[C@H]1C[C@H](O)[C@@H](COP(=O)(O)OP(=O)(O)OP(=O)(O)O)O1 [dATP]
[α-32P]-dATP uptake as a function of transporter induction (PtNTT2 [1]; 1 mM IPTG induction, media containing 50 mM KPi): maximal | dATP transport into cells by NTT (PtNTT2 [1]): efficiently transported | dATP transport into cells by NTT (PtNTT2 [1]; listed as [α-^32P]-dATP): significantly more active | dATP transport into cells by NTT (TpNTT2): efficiently transported | dATP uptake by NTT (PamNTT2): measurable uptake | dATP uptake by NTT (PamNTT5): measurable uptake | extracellular stability in the presence of potassium phosphate (KPi) (actively growing E. coli; KPi in growth medium): significantly increased

COc1cc2ccccc2cc1[C@H]1C[C@H](O)[C@@H](CO)O1 [dNaM]
Triphosphate stability, % ([2]; Method 1 TCA with Freon): 92% | Triphosphate stability, % ([2]; Method 2 PCA w/KOH): 98% | Triphosphate stability, % ([2]; Method 3 NaOH w/KOAc): 86% | Triphosphate stability, % ([2]; Method 4 NaOH w/KOAc supplemented w/ KPi (50 mM)): 99%

Cc1ccc2c(=S)n([C@H]3C[C@H](O)[C@@H](COP(=O)(O)OP(=O)(O)OP(=O)(O)O)O3)ccc2c1 [d5SICSTP]
import into E. coli by PtNTT2 (PtNTT2 [3]): efficiently imported | degradation of triphosphate in the presence of actively growing E. coli (actively growing E. coli): degraded | effect of added triphosphates on E. coli growth / toxicity (E. coli C41(DE3)): only a slight decrease in growth

COc1cc2ccccc2cc1[C@H]1C[C@H](O)[C@@H](CO)O1 [(d)NaM]
addition to DNA primer by polymerase (gel band shift) (Polymerase): extension by one base

O=P(O)(O)O [KPi, potassium phosphate, reference compound]
inhibition of dephosphorylation of unnatural triphosphates (actively growing E. coli; growing bacterial culture): significantly inhibited

COc1cc2ccccc2cc1[C@H]1C[C@H](O)[C@@H](COP(=O)(O)OP(=O)(O)OP(=O)(O)O)O1 [dNaMTP]
import into E. coli by PtNTT2 (PtNTT2 [3]): efficiently imported | degradation of triphosphate in the presence of actively growing E. coli (actively growing E. coli): degraded | effect of added triphosphates on E. coli growth / toxicity (E. coli C41(DE3)): only a slight decrease in growth
